According to PMC3944923, “Intestinal Transportations of Main Chemical Compositions of Polygoni Multiflori Radix in Caco-2 Cell Model” (Evidence-based Complementary and Alternative Medicine : eCAM, 2014):
Entries after “also recorded” stand apart in the source; their conditions may differ.

Experiments:
[1] = Caco-2 cell monolayer transport (absorption, AP → BL), HPLC-DAD; settings: human
Experimental: (§1) The cells were left to grow for 21 days to reach confluence and differentiation, so that Caco-2 cells were fully differentiated in this assay and used for further experiments.
(§2) Flux describes the movement of a substance across polarized Caco-2 monolayers either in absorptive (apical → basolateral, AP → BL) or secretary direction (basolateral → apical, BL → AP). Absorption assay was carried out in this research.
(§3) To determine the concentration of corresponding constituents in both AP and BL sides, the lyophilized samples of AP and BL sides were dissolved in quantitative methanol by ultrasound for 20 min and then filtered by 0.45 μm filtration membranes.

Caco-2 cell monolayer = experiment: as above; settings: for absorption by human intestinal epithelial cells, judged from P app against atenolol and propranolol: Caco-2 monolayer, AP → BL; for recovery rate (in words): Caco-2 assay
Experimental: as §1, §2, §3

[2] = Caco-2, Recovery rate, total compound in donor and receiver at end / initial compound, Caco-2, 90 min, Mean ± SD, n ≥ 3

Papp at 1.5 h ([1]; Caco-2) [×10⁻⁶ cm/s] | recovery at 1.5 h [1, 2] [%] | absorption by human intestinal epithelial cells, judged from P app against atenolol and propranolol (Caco-2 cell monolayer) | Compound | recovery at 1.5 h ([1]; Caco-2) [%] | recovery rate (in words) (Caco-2 cell monolayer)
0.0178 | 62.4 ± 6.21 | partly absorbed | Oc1ccc(/C=C/c2cc(O)cc(O)c2)cc1 [RL, resveratrol] |  | 
0.0171 | ~100 | partly absorbed | O=C(O)c1cc(O)c2c(c1)C(=O)c1cccc(O)c1C2=O [RN, rhein] |  | 
0.00492 | 59.9 ± 9.9 | hardly absorbed | OC[C@H]1O[C@@H](Oc2cc(O)cc(/C=C/c3ccc(O)cc3)c2)[C@H](O)[C@@H](O)[C@@H]1O [PL, polydatin] |  | 
0.0607 | ~100 |  | CC(C)NCC(O)COc1cccc2ccccc12 (stereo not drawn) [PR, Propranolol, reference compound] |  | 

Compound | Papp at 1.5 h ([1]; Caco-2) [×10⁻⁶ cm/s] | recovery at 1.5 h [1, 2] [%] | absorption by human intestinal epithelial cells, judged from P app against atenolol and propranolol (Caco-2 cell monolayer) | recovery at 1.5 h ([1]; Caco-2) [%] | recovery rate (in words) (Caco-2 cell monolayer)
Cc1cc(O)c2c(c1)C(=O)c1cc(O)cc(O)c1C2=O [EN, emodin] | 0.00248 |  |  | 14.5 ± 2.5 | poor recovery rates; also recorded: low recovery rates
OC[C@H]1O[C@@H](Oc2c(O)cc(O)cc2/C=C/c2ccc(O)cc2)[C@H](O)[C@@H](O)[C@@H]1O [TSG, 2,3,5,4′-tetrahydroxystilbene-2-O-β-D-glucoside] | 0.00237 | 17.4 ± 1.6 | hardly absorbed; also recorded: poorly absorbed |  | poor recovery rates; also recorded: low recovery rates
O=C1c2cccc(O)c2C(=O)c2c(O)cc(CO)cc21 [AE, aloe-emodin] | 0.0195 |  | partly absorbed | 42.4 ± 6.32 | 
